Data taken from PubChem BioAssay (NCI).
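Results reflect a 48-hour exposure of cells in 96-well plates to compound at five concentrations. TGI is the concentration that stops growth completely.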

How the values were obtained:
Assay in all cases: NCI tumour cell line growth inhibition, 48 h
[1] = system: SR leukemia
[2] = system: MALME-3M melanoma
[3] = system: OVCAR-4 ovarian
[4] = system: RXF 393 renal
[5] = system: KM12 colon
[6] = system: A549 NSCLC
[7] = system: MOLT-4 leukemia
[8] = system: SF-539 CNS
[9] = system: NCI-H522 lung
[10] = system: A498 renal
[11] = system: SK-OV-3 ovarian
[12] = system: CAKI-1 renal
[13] = system: PC-3 prostate
[14] = system: EKVX NSCLC
[15] = system: HCT-15 colon
[16] = system: SK-MEL-28 melanoma
[17] = system: OVCAR-8 ovarian
[18] = system: 786-0 renal
[19] = system: NCI-H460 lung
[20] = system: IGROV1 ovarian
[21] = system: SF-268 CNS
[22] = system: K-562 leukemia
[23] = system: NCI-H226 lung
[24] = system: M14 melanoma
[25] = system: TK-10 renal
[26] = system: MCF7 breast
[27] = system: SNB-75 CNS
[28] = system: OVCAR-3 ovarian
[29] = system: HT29 colon
[30] = system: HCT-116 colon
[31] = system: T-47D breast
[32] = system: CCRF-CEM leukemia
[33] = system: SNB-19 CNS
[34] = system: UACC-257 melanoma
[35] = system: SW-620 colon
[36] = system: MDA-MB-435
[37] = system: MDA-MB-231 breast
[38] = system: SF-295 CNS
[39] = system: BT-549 breast
[40] = system: DU-145 prostate
[41] = system: SN12C renal
[42] = system: RPMI-8226 leukemia
[43] = system: HL-60(TB) leukemia
[44] = system: UACC-62 melanoma
[45] = system: MDA-N
[46] = system: U251 CNS
[47] = system: SK-MEL-2 melanoma
[48] = system: UO-31 renal
[49] = system: HS 578T breast
[50] = system: LOX IMVI melanoma
[51] = system: HOP-62 NSCLC
[52] = system: SK-MEL-5 melanoma
[53] = system: OVCAR-5 ovarian
[54] = system: NCI/ADR-RES ovarian
[55] = system: COLO 205 colon
[56] = system: NCI-H23 lung
[57] = system: HCC-2998 colon
[58] = system: ACHN renal
[59] = system: HOP-92 NSCLC

Molecule `O=C(NNC(=O)c1ccccc1O)c1cccs1` has a TGI [1] of over 100 µM, a TGI [2] of over 100 µM and a TGI [3] of over 100 µM. The TGI [4] was over 100 µM, the TGI [5] was over 100 µM and the TGI [6] was over 100 µM. For the same molecule, the TGI [7] was over 100 µM, the TGI [8] was over 100 µM and the TGI [9] was 64 µM. It also gave a TGI [10] of over 100 µM, a TGI [11] of over 100 µM and a TGI [12] of over 100 µM. The TGI [13] was over 100 µM, the TGI [14] was over 100 µM and the TGI [15] was over 100 µM. It also gave a TGI [16] of over 100 µM, a TGI [17] of over 100 µM and a TGI [18] of over 100 µM. For the same molecule, the TGI [19] was over 100 µM, the TGI [20] was over 100 µM and the TGI [21] was over 100 µM. For the same molecule, the TGI [22] was over 100 µM, the TGI [23] was over 100 µM and the TGI [24] was over 100 µM. For the same molecule, the TGI [25] was over 100 µM, the TGI [26] was over 100 µM and the TGI [27] was over 100 µM. It also gave a TGI [28] of over 100 µM, a TGI [29] of over 100 µM and a TGI [30] of over 100 µM. It also gave a TGI [31] of over 100 µM, a TGI [32] of over 100 µM and a TGI [33] of over 100 µM. The TGI [34] was over 100 µM, the TGI [35] was over 100 µM and the TGI [36] was over 100 µM. The TGI [37] was over 100 µM, the TGI [38] was over 100 µM and the TGI [39] was over 100 µM. It also gave a TGI [40] of over 100 µM, a TGI [41] of over 100 µM and a TGI [42] of over 100 µM. The TGI [43] was over 100 µM, the TGI [44] was over 100 µM and the TGI [45] was over 100 µM. The TGI [46] was over 100 µM, the TGI [47] was over 100 µM and the TGI [48] was over 100 µM. It also gave a TGI [49] of over 100 µM, a TGI [50] of over 100 µM and a TGI [51] of over 100 µM. It also gave a TGI [52] of over 100 µM, a TGI [53] of over 100 µM and a TGI [54] of over 100 µM. For the same molecule, the TGI [55] was over 100 µM.
For `COc1ccc(CC2OC3(CCCCC3)CC3CCCCN32)cc1` (stereo not given), the TGI [1] was over 100 µM, the TGI [2] was over 100 µM and the TGI [3] was over 100 µM. For the same molecule, the TGI [4] was over 100 µM, the TGI [5] was over 100 µM and the TGI [6] was over 100 µM. For the same molecule, the TGI [7] was over 100 µM, the TGI [9] was over 100 µM and the TGI [11] was over 100 µM. For the same molecule, the TGI [12] was over 100 µM, the TGI [13] was over 100 µM and the TGI [14] was over 100 µM. It also gave a TGI [15] of over 100 µM, a TGI [16] of over 100 µM and a TGI [17] of over 100 µM. It also gave a TGI [18] of over 100 µM, a TGI [19] of over 100 µM and a TGI [20] of over 100 µM. The TGI [21] was over 100 µM, the TGI [22] was over 100 µM and the TGI [23] was over 100 µM. It also gave a TGI [56] of over 100 µM, a TGI [24] of over 100 µM and a TGI [57] of over 100 µM. For the same molecule, the TGI [25] was over 100 µM, the TGI [26] was over 100 µM and the TGI [27] was over 100 µM. It also gave a TGI [28] of over 100 µM, a TGI [58] of over 100 µM and a TGI [29] of over 100 µM. The TGI [30] was over 100 µM, the TGI [31] was over 100 µM and the TGI [32] was over 100 µM. It also gave a TGI [33] of over 100 µM, a TGI [34] of over 100 µM and a TGI [35] of over 100 µM. The TGI [36] was over 100 µM, the TGI [37] was over 100 µM and the TGI [38] was over 100 µM. It also gave a TGI [39] of over 100 µM, a TGI [40] of over 100 µM and a TGI [41] of over 100 µM. The TGI [59] was over 100 µM, the TGI [42] was over 100 µM and the TGI [43] was over 100 µM. It also gave a TGI [44] of over 100 µM, a TGI [45] of over 100 µM and a TGI [46] of over 100 µM. The TGI [47] was over 100 µM, the TGI [48] was over 100 µM and the TGI [49] was over 100 µM. It also gave a TGI [50] of over 100 µM, a TGI [51] of over 100 µM and a TGI [52] of over 100 µM. The TGI [53] was over 100 µM, the TGI [54] was over 100 µM and the TGI [55] was over 100 µM.
`NC(=O)C1CCCN1Cc1ccc2c(c1)OCO2` (stereo not given) was tested, and the TGI [1] was over 100 µM, the TGI [2] was over 100 µM and the TGI [3] was over 100 µM. For the same molecule, the TGI [4] was over 100 µM, the TGI [5] was over 100 µM and the TGI [6] was over 100 µM. The TGI [7] was over 100 µM, the TGI [8] was over 100 µM and the TGI [9] was over 100 µM. The TGI [10] was over 100 µM, the TGI [11] was over 100 µM and the TGI [12] was over 100 µM. The TGI [13] was over 100 µM, the TGI [14] was over 100 µM and the TGI [15] was over 100 µM. For the same molecule, the TGI [16] was over 100 µM, the TGI [17] was over 100 µM and the TGI [18] was over 100 µM. It also gave a TGI [19] of over 100 µM, a TGI [20] of over 100 µM and a TGI [21] of over 100 µM. For the same molecule, the TGI [22] was over 100 µM, the TGI [23] was over 100 µM and the TGI [56] was over 100 µM. It also gave a TGI [24] of over 100 µM, a TGI [25] of over 100 µM and a TGI [26] of over 100 µM. For the same molecule, the TGI [27] was over 100 µM, the TGI [28] was over 100 µM and the TGI [58] was over 100 µM. It also gave a TGI [29] of over 100 µM, a TGI [30] of over 100 µM and a TGI [31] of over 100 µM. It also gave a TGI [32] of over 100 µM, a TGI [33] of over 100 µM and a TGI [34] of over 100 µM. For the same molecule, the TGI [35] was over 100 µM, the TGI [36] was over 100 µM and the TGI [37] was over 100 µM. For the same molecule, the TGI [38] was over 100 µM, the TGI [39] was over 100 µM and the TGI [40] was over 100 µM. The TGI [41] was over 100 µM, the TGI [59] was over 100 µM and the TGI [42] was over 100 µM. For the same molecule, the TGI [43] was over 100 µM, the TGI [44] was over 100 µM and the TGI [45] was over 100 µM. It also gave a TGI [46] of over 100 µM, a TGI [47] of over 100 µM and a TGI [48] of over 100 µM. It also gave a TGI [49] of over 100 µM, a TGI [50] of over 100 µM and a TGI [51] of over 100 µM. For the same molecule, the TGI [52] was over 100 µM, the TGI [53] was over 100 µM and the TGI [54] was over 100 µM. For the same molecule, the TGI [55] was over 100 µM.
